In US20100075950A1, “PHENY[…] DOPAMINE RECEPTOR” (AUSPEX PHARMACEUTICALS, INC., priority 2008, published 2010):

Test: In vitro liver microsomal stability assay
Assay type: in vitro ADME
Details: 1 mg per mL liver microsome protein, NADPH-generating system, 5 microgram per mL test compound, about 37° C., 0-60 minutes, LC/MS/MS
Protocol: Liver microsomal stability assays were conducted at 1 mg per mL liver microsome protein with an NADPH-generating system in 2% NaHCO3 (2.2 mM NADPH, 25.6 mM glucose 6-phosphate, 6 units per mL glucose 6-phosphate dehydrogenase and 3.3 mM MgCl2). Test compounds were prepared as solutions in 20% acetonitrile-water and added to the assay mixture (final assay concentration 5 microgram per mL) and incubated at about 37° C. Final concentration of acetonitrile in the assay should be <1%. Aliquots (50 μL) were taken out at times 0, 15, 30, 45, and 60 minutes, and diluted with ice cold acetonitrile (200 μL) to stop the reactions. Samples were centrifuged at 12,000 RPM for about 10 minutes to precipitate proteins. Supernatants were transferred to microcentrifuge tubes and stored for LC/MS/MS analysis of the degradation half-life of the test compounds.

In the case of `Cl.[2H]C([2H])([2H])C(NC(C)C(=O)c1cccc(Cl)c1)(C([2H])([2H])[2H])C([2H])([2H])[2H]` (stereo not shown) [Example 2, 2-(tent-d9-Butylamino)-1-(3-chlorophenyl)propan-1-one Hydrochloride], the “degradation half-life as compared to the non-isotopically enriched compound” value is reported as “improved degradation half-life”.
